Assay results as given in patent US7964534B2, “Nuclear magnetic resonance assembly of chemical entities using advanced antenna probes” (Triad Liquidating Company, LLC, priority 2003, dated 2011).
Values belong to the compound of their own block, whether it stands above or below them.

Experiments:
p38α [1] = target: T1, p38α (Homo sapiens, UniProt Q16539); assay: WaterLOGSY competition experiments; assay type: binding
From the text: A peptide having the sequence […] (SEQ ID NO:1) is a known phosphorylation substrate for p38 as described, for example, in Chen et al. Biochemistry 39:2079-2087 (2000). […] This site is shown in the lower panel of FIG. 7, and is referred to as the SL (specificity ligand) site, since extending a bi-ligand library into this site off of an ATP mimic might provide additional specificity.

p38α MAP kinase = p38α MAP kinase (Homo sapiens, UniProt Q16539); assay: phosphorylation of myelin basic protein (MBP) by p38α; assay type: biochemical
Method: The TTM2001.101.A09 bi-ligand compound and the fragments from which it was constructed were tested as inhibitors of p38α enzymatic activity in an assay measuring phosphorylation of myelin basic protein (MBP) by p38α.

p38α [2] = target: T1, p38α; assay: line broadening in 1D 1H NMR spectra; assay type: binding; set-up: dose or concentration left out as unconfirmed; conditions: 50 micromolar compound
Method: The ability of TTM2001.101.A09 to bind to p38α was determined by comparing the degree of line broadening in 1D ^1H NMR spectra for the compound in the presence of p38α compared to in the absence of p38α. […] (FIG. 4b) compared to the spectrum obtained for 50 micromolar of TTM2001.101.A09 in the absence of p38α (FIG. 4a), indicative of tight binding between p38α and TTM2001.101.A09.

ATP site of p38α = ATP site of p38α (Homo sapiens, UniProt Q16539); assay: fluorescence polarization displacement of fluorescently tagged staurosporine; assay type: binding
[3] = target: unactivated p38α MAP kinase (Homo sapiens, UniProt Q16539); assay: WaterLOGSY screen of PBBA structure analogs; assay type: binding; conditions: 10 to 30 micromolar p38α, 0.1 to 1.0 millimolar compound, 4° C.
From the text: A library of 29 PBBA structure analogs was screened against unlabeled p38α MAP kinase (p38α) as follows. Samples containing 10 to 30 micromolar concentration of unactivated p38α MAP kinase and 0.1 to 1.0 millimolar concentration of one of the PBBA structure analogs were obtained. The samples were screened using WaterLOGSY with saturations times of 2 s (frequency selective excitation via a train of 232 6 ms it pulses with a GAUSS profile at an 80 Hz RF field strength) with […] using WATERGATE at 4° C. WaterLOGSY is further described in Dalvit et al. J. Biomol. NMR 21:349-59 (2001) Dalvit et al. J. Magn. Res. B112:282-288 (1996) and Dalvit et al., J. Biomol. NMR 11:437-444 (1998).

Sequence of p38α MAP kinase (Q16539 whole entry, the tested form may be a part): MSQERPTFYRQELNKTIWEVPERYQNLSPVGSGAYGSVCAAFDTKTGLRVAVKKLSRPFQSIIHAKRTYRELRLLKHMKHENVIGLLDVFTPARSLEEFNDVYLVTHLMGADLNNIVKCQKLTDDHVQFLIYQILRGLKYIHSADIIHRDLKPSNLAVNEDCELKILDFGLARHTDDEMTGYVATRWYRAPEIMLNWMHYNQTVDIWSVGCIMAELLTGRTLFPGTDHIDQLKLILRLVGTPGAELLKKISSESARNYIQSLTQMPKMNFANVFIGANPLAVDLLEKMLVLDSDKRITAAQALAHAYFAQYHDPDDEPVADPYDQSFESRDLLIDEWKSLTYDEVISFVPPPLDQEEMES
T1 sequence (Q16539 whole entry): as the sequence (Q16539 whole entry, the tested form may be a part) above
Sequence of ATP site of p38α (Q16539 whole entry): as the sequence (Q16539 whole entry, the tested form may be a part) above
Sequence of unactivated p38α MAP kinase (Q16539 whole entry): as the sequence (Q16539 whole entry, the tested form may be a part) above

displacement of PBBA from p38α (p38α [1]): could not displace PBBA from p38α
Compound: IPTTPITTTYFFFKKK [peptide, known phosphorylation substrate for p38]

tighter than either of the starting fragments (p38α MAP kinase; IC50 compared with starting fragments PBBA and TTM2001.082.B09): greater than 100 fold
Kd (p38α MAP kinase; correction of the IC50 for high ATP concentration, read-out: Kd for binding between p38α and compound): ~300 nM
IC50 (p38α MAP kinase; inhibition of MBP phosphorylation by p38α): 1700 nM
line broadening in presence of p38α (binding) (p38α [2]): significant line-broadening
Compound: O=C(O)c1ccc(CCCCCCSCc2cc(-n3cnc4cc(C(=O)O)ccc43)ccc2F)cc1 [TTM2001.101.A09]

Compound: CCCCc1ccc(C(=O)O)cc1 [PBBA, p-butyl benzoic acid]
displacement of fluorescently tagged staurosporine (ATP site of p38α): not able to displace a fluorescently tagged staurosporine
inhibition of phosphorylation of MBP protein by p38α (p38α MAP kinase): inhibit phosphorylation of MBP protein by p38α
cross-saturation effects with p38α (binding) [3]: showed cross-saturation effects with p38α indicating binding to the protein
